Three compounds from patent publication US5977373A, “Thiadiazolyl and oxadiazolyl phenyl oxazolidinone antibacterial agents” (Pharmacia & Upjohn Company, priority 1998, dated 1999) can be followed below.

Values after ≈ are worked out from the molar mass of the structure shown. Some results are limits rather than exact numbers.

Common to all, as to type: cell-based
One assay concerns S. Aureus UC ® 9213. The experiment in a line: In vitro minimum inhibitory concentration (MIC) by agar dilution, gram-positive bacteria (Table 1). Conditions: Staphylococcus aureus, UC9213. The gist of the method: (§1)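 MIC determined by agar dilution following NCCLS standard methods for aerobically growing bacteria (1983).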
The test system of the next assay is S. pneumoniae UC ® 9912. Described as above. The note with it: Streptococcus pneumoniae, UC9912. In outline: as §1
The test system of a further assay is HI 30063. Put plainly: MIC for a gram negative bacterial strain (Table 2). The note with it: gram negative bacterial strain HI 30063.

The term MIC denotes the lowest concentration that inhibits growth of the organism. With `CCC(=S)NC[C@H]1CN(c2ccc(-c3nncs3)c(F)c2)C(=O)O1` [Example 76, (S)-N-[[3-[3-Fluoro-4-(1,3,4-thiadiazol-2-yl)phenyl]-2-oxo-5-oxazolidinyl]methyl]propanethioamide], the MIC in the assay on S. Aureus UC ® 9213 is 0.25 µg/mL (≈ 0.682 µM); against S. pneumoniae UC ® 9912, less than 0.125 µg/mL; against HI 30063, 1 µg/mL (≈ 2.73 µM).

In the case of `CC(=S)NC[C@H]1CN(c2ccc(-c3nnc(CN)s3)c(F)c2)C(=O)O1` [Example 77, N-[((5S)-3-{4-[5-(aminomethyl)-1,3,4-thiadiazol-2-yl]-3-fluorophenyl}-2-oxo-1,3-oxazolidin-5-yl)methyl]ethanethioamide], the MIC in the assay on S. Aureus UC ® 9213, against S. pneumoniae UC ® 9912 and in the assay on HI 30063 was less than 0.5 µg/mL each time.

With `CC(=O)OCC(=O)NCc1nnc(-c2ccc(N3C[C@H](CNC(C)=S)OC3=O)cc2F)s1` [Example 78, 2-({[5-(4-{(5S)-5-[(ethanethioylamino)methyl]-2-oxo-1,3-oxazolidin-3-yl}-2-fluorophenyl)-1,3,4-thiadiazol-2-yl]methyl}amino)-2-oxoethyl acetate], the MIC in the assay with S. Aureus UC ® 9213 is 2 µg/mL; against S. pneumoniae UC ® 9912, less than 0.5 µg/mL; with HI 30063, 4 µg/mL.
